Measurements from US12116421B2, “Peptide-based Dopa containing adhesive gels” (KING ABDULLAH UNIVERSITY OF SCIENCE AND TECHNOLOGY, priority 2020, dated 2024).
Where a SMILES comes first, the peptide text is derived from it. [ ]: non-standard residue; d: D form. Dopa = N[C@@H](Cc1ccc(O)c(O)c1)C(=O)O; Cha = N[C@@H](CC1CCCCC1)C(=O)O

Tests used:
[1] = AFM topography of peptide nanofibres; type: physicochemical; details: 13 mM in MilliQ water
Procedure: In one embodiment, DoIIZK and IIZKDo form nice long and twisted fibers whereas, but IIZDoK peptide performs scarcely even at the concentration of 10 mg/mL. The photos in FIG. 11 has a scalebar of 200 nm, while the photos in FIG. 12 has a scalebar of 400 nm. The peptides shown in FIGS. 11 and 12 are dissolved in MilliQ® water at the concentration of 13 mM. According to the AFM photos in FIGS. 15 and 16 and 3D plot shown in FIG. 11, peptides DoIIZK, IIZDoK and IIZKDo show the following structural properties: • DoIIZK: helical pitch of 24.75±1.46 nm; maximum diametre 1.01±0.14 nm; minimum diametre: 0.66±0.09 nm. • IIZDoK: helical pitch of 8.63±0.49 nm; maximum diametre 1.66±0.19 nm; minimum diametre: 1.16±0.17 nm. • IIZKDo: helical pitch of 24.21±1.24 nm; maximum diametre 3.87±0.28 nm; minimum diametre: 3.09±0.16 nm.
(§1) AFM topography measurements were performed on a Dimension Icon SPM (Bruker®). The samples were prepared as follows: peptides were dissolved at 13 mM concentration in MilliQ® water; after 30 minutes, 20 μl of these solutions were dropped on freshly cleaved mica sheets and immediately dried with an N2 stream. Measurements were immediately performed in tapping mode in air by the use of an AFM probe AC_240TS_R3 (Olympus®) with nominal free oscillation at roughly 70 kHz and a nominal spring constant of 2 N/m. The probe was calibrated by contact-free method.^54 Free oscillation amplitude was set at 200 mV with a 5% damping during tapping mode measurement. AFM adhesion measurements were performed on a JPK Nanowizard™ III mounted on Olympus® IX-81 inverted optical microscope. A mica sheet was glued one day before the experiment with double component epoxy glue to a glass slide and enclosed in a plastic o-ring provided by the JPK company for liquid measurements. Each peptide was dissolved in MilliQ® water at a concentration of 13 mM and mixed gently. Starting with the measurement in MilliQ® water, 50 μL of the solution were dropped on the freshly cleaved mica sheet within 5 minutes from the preparation of the solution and let equilibrate for 10 minutes. After, the excess solution was removed by pipetting and discarded. Then 1 mL of MilliQ® water was added gently from the side and after 5 minutes, the sample was rinsed 3 times by additional 1 mL MilliQ® water. Finally, the sample was measured by AFM force spectroscopy (Quantitative imaging mode) with additional 1 mL MilliQ® water. The MilliQ® water was exchanged after the measurement alternatively with a water solution containing 137 mM NaCl or 10 mM Phosphate ions (a combination of Na2HPO4·7H2O and NaH2PO4·H2O to reach pH 7.4). After performing the force spectroscopy map in these two different solutions, eventually, the liquid was exchanged with 1×PBS pH 7.4. To verify the presence of eventual fibers, after the measurement, the excess solution was removed by pipetting and discarded. The sample was then rinsed two times with 1 mL MilliQ® water and dried overnight in a vacuum chamber. The topography AFM imaging was performed using AC-240TS_R3 AFM probes in tapping mode in the JPK AFM.

[2] = AFM force spectroscopy adhesion measurement in liquid; type: physicochemical; details: for reduction of adhesion force by addition of NaCl: NaCl versus MilliQ water
Procedure: In one embodiment, the peptides were dissolved in the proper solution at a concentration of 10 mg/mL. The peptide solutions were spotted on a freshly cleaved mica sheet and the measurement was performed in liquid.
In one embodiment, the adhesion properties of the Dopa peptides are influenced by the construct lysine-Dopa and by the position of the catechol moiety in the peptide sequence, as indicated by the AFM force spectroscopy results in liquid. In a typical force spectroscopy curve the probe is several times approached to the surface and retracted and for every cycle of retraction the maximum force of adhesion is recorded. The incorporation of a catechol moiety near a lysine would enhance adhesion to negatively charged surfaces. FIG. 28 illustrates the effect of lysine on adhesion to negatively charged surfaces. Therefore, probes and substrates that were manifesting negative charges on their surfaces, such as the silicon probe and the freshly cleaved mica substrate, are used in the AFM spectroscopy. The setup of probe and substrate is illustrated in FIG. 29.
The peptides dissolved in the proper solution at 13 mM concentration each, were spotted on a freshly cleaved mica sheet and the measurement was performed in liquid. Several force curves were recorded for different buffers. […] In FIG. 30, the inset image represents the maximum extension of each peptide dissolved in water, when manually pulled between two glass slides. Also in FIG. 30, the approach part of the curve contains the important information defined as “jump to contact”, while the retract part of the F-D curve contains the adhesion force value. […] Two controls were also introduced: namely the original peptide IIZK, and an alternative peptide IIFK. To better understand the influence of Dopa on the adhesion properties of the peptide, the original short peptide IIZK would make a perfect negative control. We also introduced as a control the IIFK peptide in order to understand the effect of IIZK itself on adhesion. In FIG. 32, statistical significance expressed as p<0.01.
as §1, with “To verify the presence of eventual fibers, after the measurement, the excess solution was removed by pipetting and discarded. The sample was then rinsed two times with 1 mL MilliQ® water and dried overnight in a vacuum chamber. The topography AFM imaging was performed using AC-240TS_R3 AFM probes in tapping mode in the JPK AFM.” left out

CC[C@H](C)[C@H](NC(=O)[C@H](Cc1ccc(O)c(O)c1)NC(C)=O)C(=O)N[C@H](C(=O)N[C@@H](CC1CCCCC1)C(=O)N[C@@H](CCCCN)C(N)=O)[C@@H](C)CC [DoIIZK, Ac-Dopa-Ile-Ile-Cha-Lys-NH2] (Ac-[Dopa]II[Cha]K-NH2)
helical pitch [1]: 24.75±1.46 nm
maximum diametre [1]: 1.01±0.14 nm
minimum diametre [1]: 0.66±0.09 nm
Force of adhesion (Geometric Mean) ([2]; 10 mM PO4, peptide 13 mM): 34.81 PN
Force of adhesion (Geometric Mean) ([2]; 137 mM NaCl, peptide 13 mM): 64.64 PN
Force of adhesion (Geometric Mean) ([2]; 1×PBS, peptide 13 mM): 13.36 PN
Force of adhesion (Geometric Mean) ([2]; MilliQ water, peptide 13 mM): 112.7 PN
reduction of adhesion force by addition of NaCl [2]: about 50%

CC[C@H](C)[C@H](NC(C)=O)C(=O)N[C@H](C(=O)N[C@@H](CC1CCCCC1)C(=O)N[C@@H](Cc1ccc(O)c(O)c1)C(=O)N[C@@H](CCCCN)C(N)=O)[C@@H](C)CC [IIZDoK, Ac-Ile-Ile-Cha-Dopa-Lys-NH2] (Ac-II[Cha][Dopa]K-NH2)
helical pitch [1]: 8.63±0.49 nm
maximum diametre [1]: 1.66±0.19 nm
minimum diametre [1]: 1.16±0.17 nm
Force of adhesion (Geometric Mean) ([2]; 10 mM PO4, peptide 13 mM): 22.47 PN
Force of adhesion (Geometric Mean) ([2]; 137 mM NaCl, peptide 13 mM): 44.01 PN
Force of adhesion (Geometric Mean) ([2]; 1×PBS, peptide 13 mM): 23.33 PN
Force of adhesion (Geometric Mean) ([2]; MilliQ water, peptide 13 mM): 72 PN
reduction of adhesion force by addition of NaCl [2]: about 50%

CC[C@H](C)[C@H](NC(C)=O)C(=O)N[C@H](C(=O)N[C@@H](CC1CCCCC1)C(=O)N[C@@H](CCCCN)C(=O)N[C@@H](Cc1ccc(O)c(O)c1)C(N)=O)[C@@H](C)CC [IIZKDo, Ac-Ile-Ile-Cha-Lys-Dopa-NH2] (Ac-II[Cha]K[Dopa]-NH2)
helical pitch [1]: 24.21±1.24 nm
maximum diametre [1]: 3.87±0.28 nm
minimum diametre [1]: 3.09±0.16 nm
Force of adhesion (Geometric Mean) ([2]; 10 mM PO4, peptide 13 mM): 13.89 PN
Force of adhesion (Geometric Mean) ([2]; 137 mM NaCl, peptide 13 mM): 76.89 PN
Force of adhesion (Geometric Mean) ([2]; 1×PBS, peptide 13 mM): 29.5645 PN
Force of adhesion (Geometric Mean) ([2]; MilliQ water, peptide 13 mM): 73.31 PN
reduction of adhesion force by addition of NaCl [2]: did not significantly impact
